Measured values published in patent US20240158430A1, “NOVEL COMPOUND OR SALT THEREOF, AND ANTITUMOR ACTIVATOR CONTAINING SAME AS ACTIVE INGREDIENT” (AKITA UNIVERSITY, priority 2021, published 2024).
Where two headings read alike, the source gives them in different places. Each block holds one compound with its values, some of them ahead of it.

Columns and labels:
[1] = Turbidity measurement; format: physicochemical; settings: for Turbidity (Relative Value): Table 3, relative to curcumin = 1
Procedure: The turbidity of various compounds was measured. The method is as follows. […] Curcumin was cloudy while GO-Y199 was clear. The solubility was measured with a turbidimeter (WZB-170 Portable Turbidimeter available from REX). The turbidity of the compound was corrected for concentration.
Subsequently, GO-Y206 and curcumin were adjusted to final concentrations of 1.25 μM and 5.00 μM, respectively, and their turbidities were measured.

[2] = tested on: colorectal cancer cell line HCT116; assay: Cell growth inhibitory activity, HCT116; format: cell-based
Procedure: (§1) The cell growth inhibitory activity against a colorectal cancer cell line HCT116 was measured. As an index of cell growth inhibitory activity, a concentration at which cell growth was inhibited by 50% as compared with a control (IC50) was used. The method is as follows. HCT116 was added to a 6-well plate by 5×10^4, compounds having various concentrations were added after 24 hours, and the number of cells was counted after 72 hours of culture. As the control, DMSO was used in an amount equal to the amount added in accordance with the addition concentration of the highest-concentration compound. The number of cells at each concentration relative to the control was expressed as a percentage.
(§2) The method is as described above.
(§3) The cell growth inhibitory activity (IC50) of each of curcumin, GO-Y199, and GO-Y206 against the colorectal cancer cell lines DLD-1 and HCT116 and the gastric cancer cell lines KATO III and H-111-TC was measured. The method is as described above.

[3] = tested on: malignant pleural mesothelioma cell line NCI-H226; assay: Cell growth inhibitory activity, NCI-H226; format: cell-based; settings: Table 8
Procedure: as §1, with “percentage. In Table 3, the turbidities of the compounds are also indicated.” for “percentage.”
(§4) GO-Y198, GO-Y199, and GO-Y200 against malignant pleural mesothelioma cell lines NCI-H226 and MSTO211H was measured. The method is as described above. For comparison, the IC50 of cisplatin (CDDP), a cytocidal anticancer agent, is also indicated.

[4] = tested on: malignant pleural mesothelioma cell line MSTO211H; assay: Cell growth inhibitory activity, MSTO211H; format: cell-based; settings: Table 8
Procedure: as §1, with “percentage. In Table 3, the turbidities of the compounds are also indicated.” for “percentage.”
as §4

[5] = tested on: malignant melanoma cell line G361; assay: Cell growth inhibitory activity, G361; format: cell-based; settings: Table 9
Procedure: [The source words this procedure for another cell line and reports this cell line under the same test.] as §1, §2

[6] = tested on: cutaneous T-cell lymphoma cell line HH; assay: Cell growth inhibitory activity, HH; format: cell-based; settings: Table 10
Procedure: [The source words this procedure for another cell line and reports this cell line under the same test.] as §1, §2

[7] = tested on: cutaneous T-cell lymphoma cell line HUT78; assay: Cell growth inhibitory activity, HUT78; format: cell-based; settings: Table 10
Procedure: [The source words this procedure for another cell line and reports this cell line under the same test.] as §1, §2

[8] = tested on: vascular endothelial cells HUVEC-R resistant to Ki8751; assay: Angiogenesis inhibitory activity, HUVEC-R; format: cell-based; settings: Table 11, number of cells after 72 hours
Procedure: HUVEC-R was cultured in the presence of each compound using an EGMTM-2 Bullet Kit (Takara Bio Inc., Otsu, Japan), and the number of cells was measured after 72 hours. In addition, IC50 was determined from the results.

[9] = tested on: gastric cancer cell line SH-10-TC; assay: Cell growth inhibitory activity, SH-10-TC; format: cell-based; settings: SH-10-TC; Table 4; 72 hours
Procedure: [The source words this procedure for another cell line and reports this cell line under the same test.] as §1, §2

[10] = tested on: gastric cancer cell line KATO III; assay: Cell growth inhibitory activity, KATO III; format: cell-based; settings: Table 6, read-out: IC50 (μM) KATO III
Procedure: as §1, §2, §3

[11] = tested on: gastric cancer cell line GCIY; assay: Cell growth inhibitory activity, GCIY; format: cell-based; settings: Homo sapiens, GCIY; Table 4; 72 hours
Procedure: [The source words this procedure for another cell line and reports this cell line under the same test.] as §1, §2

[12] = tested on: colorectal cancer cell line DLD-1; assay: Cell growth inhibitory activity, DLD-1; format: cell-based
Procedure: as §1, §2, §3

[13] = tested on: gastric cancer cell line H-111-TC; assay: Cell growth inhibitory activity, H-111-TC; format: cell-based; settings: Table 6
Procedure: as §1, with “percentage. In Table 3, the turbidities of the compounds are also indicated.” for “percentage.”
as §3, with “above. FIG. 8 indicates the results of cell growth inhibitory activity of these compounds against various cancer cell lines.” for “above.”

[14] = tested on: pancreatic cancer cell line ASPC-1; assay: Cell growth inhibitory activity, ASPC-1; format: cell-based; settings: Table 7
Procedure: [The source words this procedure for another cell line and reports this cell line under the same test.] as §1, §2

[15] = tested on: pancreatic cancer cell line Panc-1; assay: Cell growth inhibitory activity, Panc-1; format: cell-based; settings: Table 7
Procedure: [The source words this procedure for another cell line and reports this cell line under the same test.] as §1, §2

[16] = Table 1, average turbidity corrected for final concentration (1.7-170 μm, per compound)
[17] = Table 1, turbidity/μm relative to curcumin = 1
[18] = Table 3, HCT116, cell count after 72 hours of culture vs DMSO control, read-out: IC50
[19] = Table 2, value in parentheses, relative to curcumin = 1.00

SMILES: COCOc1cc(/C=C/C(=O)CC(SCC(=O)OC)c2cc(OCOC)cc(OCOC)c2)cc(OCOC)c1 (racemic) [GO-Y136, reference compound]
Turbidity/μm [1, 16]: 0.024 NTU/μM | Relative Value (turbidity) [1, 17]: 0.083 | Turbidity (Relative Value) [1]: 0.083 | Ave Turbidity (NTU) ([1]; final conc. 1.7 μm in DDW): 0.04 ± 0.0082 NTU | IC50 [2, 18]: 0.89 µM

SMILES: COCOc1cc(C=CC(=O)CC(SCCOCCOCCOCCOCc2cn(CCCOC(=O)CCCCC3SCC4NC(=O)NC43)nn2)c2cc(OCOC)cc(OCOC)c2)cc(OCOC)c1 (mixture of isomers) [GO-Y195]
IC50 [2, 18]: 1.8 µM

SMILES: COc1cc(/C=C/C(=O)CC(=O)/C=C/c2ccc(O)c(OC)c2)ccc1O [curcumin, reference compound]
Turbidity/μm [1, 16]: 0.29 NTU/μM | Relative Value (turbidity) [1, 17]: 1 | Turbidity (NTU) ([1]; Table 2, final conc. 1.25 μM): 4.96 NTU | Turbidity/μm ([1]; Table 2, final conc. 1.25 μM): 3.968 NTU/μM | Turbidity (NTU) ([1]; Table 2, final conc. 5.0 μM): 29.0 NTU | Turbidity/μm ([1]; Table 2, final conc. 5.0 μM): 5.8 NTU/μM | Relative Value (turbidity) [1, 19]: (1.00) | Turbidity (Relative Value) [1]: 1 | appearance of solution ([1]; final concentration 50 μM in distilled water or DMEM with 10% fetal bovine serum, from DMSO): cloudy | IC50 ([2]; Homo sapiens, HCT-116, read-out: IC50 HCT-116, Table 4, 72 hours): 16 µM | IC50 ([2]; Homo sapiens, HCT-116, Table 3, HCT116, cell count after 72 hours of culture vs DMSO control, read-out: IC50): 16 µM | IC50 ([2]; Homo sapiens, HCT-116, Table 6, read-out: IC50 (μM) HCT116): 7.08 µM | IC50 [9]: 8.07 µM | IC50 ([10]; Homo sapiens, KATO III): 11 µM | IC50 [11]: 8.66 µM | IC50 ([12]; Homo sapiens, DLD-1, Table 4, 72 hours, read-out: IC50 DLD-1): 18.7 µM | IC50 ([12]; Homo sapiens, DLD-1, Table 6, read-out: IC50 (μM) DLD-1): 44.8 µM | IC50 [13]: > 50 µM | IC50 ([14]; Homo sapiens, ASPC1): 18.5 µM | IC50 ([15]; Homo sapiens, PANC-1): 29.2 µM | IC50 ([3]; Homo sapiens, NCI-H226): 15.1 µM | IC50 ([4]; Homo sapiens, MSTO-211H): 33.7 µM | IC50 ([5]; Homo sapiens, G-361): 16.8 µM | IC50 ([6]; T-cell): 18.1 µM | IC50 ([7]; Homo sapiens, HuT78): 9.01 µM | IC50 ([8]; Endothelial cell): 11.9 µM

SMILES: COCOc1cc(/C=C/C(=O)CC(SCCOCCOCCOCCOCc2cn(CCCO)nn2)c2cc(OCOC)cc(OCOC)c2)cc(OCOC)c1 (racemic) [GO-Y194]
IC50 [2, 18]: 0.5 µM

SMILES: COCOc1cc(/C=C/C(=O)CC(SCCOCCOCCOCCOCc2cn([C@@H]3O[C@H](CO)[C@@H](O[C@H]4O[C@H](CO)[C@@H](O)[C@H](O)[C@H]4O)[C@H](O)[C@H]3O)nn2)c2cc(OCOC)cc(OCOC)c2)cc(OCOC)c1 (stereo partly shown) [GO-Y200]
Turbidity/μm [1, 16]: 0 NTU/μM | Relative Value (turbidity) [1, 17]: 0 | Turbidity (Relative Value) [1]: 0 | Ave Turbidity (NTU) ([1]; final conc. 8.3 μm in DDW): 0 NTU | IC50 [2, 18]: 0.42 µM | IC50 [14]: 1.33 µM | IC50 [15]: 0.91 µM | IC50 [3]: 4.7 µM | IC50 [4]: 4.5 µM | IC50 [6]: 1.31 µM | IC50 [7]: 0.91 µM | IC50 [8]: 1.3 µM

SMILES: COc1cc(/C=C/C(=O)/C=C/c2ccc(O)c(OC)c2)ccc1O [GO-Y022, reference compound]
Turbidity/μm [1, 16]: 0.014 NTU/μM | Relative Value (turbidity) [1, 17]: 0.048 | Turbidity (Relative Value) [1]: 0.048 | Ave Turbidity (NTU) ([1]; final conc. 8.3 μm in DDW): 0.12 ± 0.0094 NTU | IC50 [2, 18]: 2.02 µM | IC50 [14]: 8.52 µM | IC50 [15]: 6.67 µM | IC50 [5]: 3.1 µM | IC50 [6]: 9.16 µM | IC50 [7]: 4.03 µM | IC50 [8]: 4.7 µM

SMILES: COCOc1cc(/C=C/C(=O)/C=C/c2cc(OCOC)cc(OCOC)c2)cc(OCOC)c1 [GO-Y030, (1E,4E)-1,5-bis-[3,5-bis(methoxymethoxy)phenyl]pentadiene-3-one, reference compound]
Turbidity/μm [1, 16]: 2.68 NTU/μM | Ave Turbidity (NTU) ([1]; final conc. 17 μm in DDW): 45.6 ± 0.21 NTU | Turbidity (NTU) ([1]; individual measurements, final conc. 170 μm, DMSO stock diluted in 30 mL DDW): over limit

Further lines, with some results ahead:

Turbidity/μm [1, 16]: 0 NTU/μM | Relative Value (turbidity) [1, 17]: 0 | Turbidity (Relative Value) [1]: 0 | Ave Turbidity (NTU) ([1]; final conc. 8.3 μm in DDW): 0 NTU | IC50 [2, 18]: 0.7 µM | IC50 [3]: 4 µM | IC50 [4]: 3.9 µM | IC50 [5]: 1.1 µM | IC50 [6]: 1.11 µM | IC50 [7]: 0.81 µM
SMILES: COCOc1cc(/C=C/C(=O)CC(SCCOCCOCCOCCOCc2cn([C@H]3O[C@@H](CO)[C@H](O)[C@@H](O)[C@@H]3O)nn2)c2cc(OCOC)cc(OCOC)c2)cc(OCOC)c1 (stereo partly shown) [GO-Y197]
IC50 [8]: 0.96 µM

Turbidity/μm ([1]; Table 2, final conc. 1.25 μM): 0.144 NTU/μM | Turbidity (NTU) ([1]; Table 2, final conc. 5.0 μM): 1.82 NTU | Turbidity/μm ([1]; Table 2, final conc. 5.0 μM): 0.364 NTU/μM | Relative Value (turbidity) [1, 19]: (0.052) | turbidity as percent of curcumin ([1]; from averaged NTU/μM): 5% | IC50 ([2]; Table 6, read-out: IC50 (μM) HCT116): 0.91 µM | IC50 [10]: 3.11 µM | IC50 ([12]; Table 6, read-out: IC50 (μM) DLD-1): 1.21 µM | IC50 [13]: 4.67 µM
SMILES: COCOc1cc(C=CC(=O)CC(SCCOCCOCCOCCOCc2cn(C3CC(O)C(O)C(CO)O3)nn2)c2cc(OCOC)cc(OCOC)c2)cc(OCOC)c1 (mixture of isomers) [GO-Y206]

Turbidity/μm [1, 16]: 0 NTU/μM | Relative Value (turbidity) [1, 17]: 0 | Turbidity (Relative Value) [1]: 0 | Ave Turbidity (NTU) ([1]; final conc. 8.3 μm in DDW): 0 NTU | IC50 [2, 18]: 0.67 µM
SMILES: COCOc1cc(C=CC(=O)CC(SCCOCCOCCOCCOCc2cn(C3OC(CO)C(O)C(O)C3O)nn2)c2cc(OCOC)cc(OCOC)c2)cc(OCOC)c1 (mixture of isomers) [GO-Y196]

Turbidity/μm [1, 16]: 0 NTU/μM | Relative Value (turbidity) [1, 17]: 0 | Turbidity (Relative Value) [1]: 0 | Ave Turbidity (NTU) ([1]; final conc. 8.3 μm in DDW): 0 NTU | IC50 [2, 18]: 0.44 µM | IC50 [3]: 4.2 µM | IC50 [4]: 0.9 µM | IC50 [6]: 1.15 µM | IC50 [7]: 0.51 µM
SMILES: COCOc1cc(/C=C/C(=O)CC(SCCOCCOCCOCCOCc2cn([C@H]3O[C@H](CO)[C@@H](O)[C@H](O)[C@@H]3O)nn2)c2cc(OCOC)cc(OCOC)c2)cc(OCOC)c1 (stereo partly shown) [GO-Y198]
IC50 [8]: 1.08 µM
